Values joined by “and” are separate entries in the source; they are usually repeats but may differ in a detail not shown here. Equal entries are not always repeated. Toxic doses and inconclusive results are not listed. How the source made its calls: active means survival T/C of 150% or more; inactive means T/C below 125% in these data.
Tested on: CD2F1 mice, L1210 leukemia ip, survival T/C
Assay: NCI In Vivo Anticancer Drug Screen. Data for tumor model L1210 Leukemia (intraperitoneal) in CD2F1 (CDF1) mice
Details: higher = longer survival
In short: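 In this screen, transplantable tumors were grown in mice given either the compound or its vehicle. Results were expressed as the treated measurement relative to the control measurement.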

[1] = endpoint: mean survival time, dose: 100.0 mg/kg/injection, schedule: Q01DX009 (ip), vehicle: saline with Tween-80
[2] = endpoint: mean survival time, dose: 100.0 mg/kg/injection, schedule: Q04DX003 (ip), vehicle: saline with Tween-80
[3] = endpoint: mean survival time, dose: 200.0 mg/kg/injection, schedule: Q01DX009 (ip), vehicle: saline with Tween-80
[4] = endpoint: mean survival time, dose: 200.0 mg/kg/injection, schedule: Q04DX003 (ip), vehicle: saline with Tween-80
[5] = endpoint: mean survival time, dose: 400.0 mg/kg/injection, schedule: Q01DX009 (ip), vehicle: saline with Tween-80
[6] = endpoint: mean survival time, dose: 400.0 mg/kg/injection, schedule: Q04DX003 (ip), vehicle: saline with Tween-80
[7] = endpoint: mean survival time, dose: 100.0 mg/kg/injection, schedule: Q01DX001 (ip), vehicle: saline
[8] = endpoint: mean survival time, dose: 50.0 mg/kg/injection, schedule: Q01DX009 (ip), vehicle: saline with Tween-80
[9] = endpoint: mean survival time, dose: 75.0 mg/kg/injection, schedule: Q01DX001 (ip), vehicle: saline
[10] = endpoint: mean survival time, dose: 25.0 mg/kg/injection, schedule: Q01DX009 (ip), vehicle: saline with Tween-80
[11] = endpoint: mean survival time, dose: 100.0 mg/kg/injection, schedule: Q01DX001 (ip), vehicle: saline with Tween-80
[12] = endpoint: mean survival time, dose: 200.0 mg/kg/injection, schedule: Q01DX001 (ip), vehicle: saline with Tween-80

Measured: T/C

O=C(O)CCCSc1nn(C2OC(CO)C(O)C2O)c(=O)[nH]c1=O (stereo not given)
inactive: endpoint: mean survival time, dose: 12.5 mg/kg/injection, schedule: Q01DX005 (ip), vehicle: water 104 % of control | endpoint: mean survival time, dose: 25.0 mg/kg/injection, schedule: Q01DX005 (ip), vehicle: water 104 % of control | endpoint: mean survival time, dose: 50.0 mg/kg/injection, schedule: Q01DX005 (ip), vehicle: water 104 % of control | endpoint: mean survival time, dose: 100.0 mg/kg/injection, schedule: Q01DX005 (ip), vehicle: water 101 % of control | endpoint: mean survival time, dose: 200.0 mg/kg/injection, schedule: Q01DX005 (ip), vehicle: water 101 % of control

COc1ccc(CC2C(=O)NC(C)C(=O)N(C)C3Cc4ccc(cc4)Oc4cc(ccc4O)CC(C(=O)NC(C)C(=O)NC(C)C(=O)N2C)N(C)C3=O)cc1 (stereo not given)
inactive: endpoint: mean survival time, dose: 1.0 mg/kg/injection, schedule: Q01DX009 (ip), vehicle: saline with Tween-80 112 % of control | endpoint: mean survival time, dose: 2.0 mg/kg/injection, schedule: Q01DX009 (ip), vehicle: saline with Tween-80 112 % of control | endpoint: mean survival time, dose: 4.0 mg/kg/injection, schedule: Q01DX009 (ip), vehicle: saline with Tween-80 116 % of control | endpoint: mean survival time, dose: 16.0 mg/kg/injection, schedule: Q01DX009 (ip), vehicle: saline with Tween-80 122 % of control | endpoint: median survival time, dose: 2.0 mg/kg/injection, schedule: Q01DX009 (ip), vehicle: saline with Tween-80 122 % of control | endpoint: median survival time, dose: 4.0 mg/kg/injection, schedule: Q01DX009 (ip), vehicle: saline with Tween-80 124 % of control | endpoint: median survival time, dose: 16.0 mg/kg/injection, schedule: Q01DX009 (ip), vehicle: saline with Tween-80 111 % of control

C#CC(=O)OCC#CCOC(=O)C#C
inactive: endpoint: mean survival time, dose: 0.75 mg/kg/injection, schedule: Q01DX009 (ip), vehicle: saline with Tween-80 98 % of control | endpoint: mean survival time, dose: 1.5 mg/kg/injection, schedule: Q01DX009 (ip), vehicle: saline with Tween-80 100 % of control | endpoint: mean survival time, dose: 3.0 mg/kg/injection, schedule: Q01DX009 (ip), vehicle: saline with Tween-80 98 % of control | endpoint: mean survival time, dose: 6.0 mg/kg/injection, schedule: Q01DX009 (ip), vehicle: saline with Tween-80 98 % of control | endpoint: mean survival time, dose: 12.0 mg/kg/injection, schedule: Q01DX009 (ip), vehicle: saline with Tween-80 90 % of control

NC(=O)NOCc1ccc([N+](=O)[O-])cc1
inactive: endpoint: mean survival time, dose: 100.0 mg/kg/injection, schedule: Q01DX009 (ip), vehicle: saline 97 % of control | endpoint: mean survival time, dose: 200.0 mg/kg/injection, schedule: Q01DX009 (ip), vehicle: saline 96 % of control | endpoint: mean survival time, dose: 400.0 mg/kg/injection, schedule: Q01DX009 (ip), vehicle: saline 95 % of control

CCOC(=O)C(=CNc1ccc(C)cn1)C(=O)OCC
inactive: [1] 93 % of control | [2] 92 % of control | [3] 98 % of control | [4] 95 % of control | [5] 97 % of control | [6] 103 % of control

CC1CCC(C(C)C)/C(=N/NC(=O)CC#N)C1 (stereo not given)
inactive: [7] 98 % of control | endpoint: mean survival time, dose: 200.0 mg/kg/injection, schedule: Q01DX001 (ip), vehicle: saline 95 % of control

COc1ccccc1NC(=O)c1ccccc1
inactive: [1] 98 % of control | [3] 114 % of control | [5] 104 % of control

CC(=O)Oc1ccc(CC2N=C(c3ccccc3)OC2=O)cc1 (stereo not given)
inactive: [8] 87 % of control | [1] 91 % of control

Cc1cc(C)c2nc(-c3ccc(Cl)cc3)cc(C(=O)O)c2c1
inactive: [7] 96 % of control | endpoint: mean survival time, dose: 100.0 mg/kg/injection, schedule: Q04DX002 (ip), vehicle: Klucel (hydroxypropylcellulose) (HPC) 94 % of control | endpoint: mean survival time, dose: 200.0 mg/kg/injection, schedule: Q04DX002 (ip), vehicle: Klucel (hydroxypropylcellulose) (HPC) 94 % of control

C=C1C(=O)OC2CCN3CC=C(COC(=O)C(C)(O)C4(CO4)C1C)C23 (stereo not given)
inactive: [9] 107 % of control

OCC1OC(n2cnc3c(NO)ncnc32)C(O)C1O (stereo not given)
inactive: endpoint: mean survival time, dose: 12.5 mg/kg/injection, schedule: Q01DX009 (ip), vehicle: Klucel (hydroxypropylcellulose) (HPC) 87 % of control and 103 % of control | endpoint: mean survival time, dose: 25.0 mg/kg/injection, schedule: Q01DX009 (ip), vehicle: Klucel (hydroxypropylcellulose) (HPC) 88 % of control and 104 % of control | endpoint: mean survival time, dose: 50.0 mg/kg/injection, schedule: Q01DX009 (ip), vehicle: Klucel (hydroxypropylcellulose) (HPC) 92 % of control and 104 % of control | endpoint: mean survival time, dose: 100.0 mg/kg/injection, schedule: Q01DX009 (ip), vehicle: Klucel (hydroxypropylcellulose) (HPC) 92 % of control and 104 % of control | endpoint: mean survival time, dose: 200.0 mg/kg/injection, schedule: Q01DX009 (ip), vehicle: Klucel (hydroxypropylcellulose) (HPC) 92 % of control and 104 % of control | endpoint: mean survival time, dose: 400.0 mg/kg/injection, schedule: Q01DX009 (ip), vehicle: Klucel (hydroxypropylcellulose) (HPC) 95 % of control and 107 % of control

CNc1nc2cc(C)c(C)cc2n1C1OC(CO)C(O)C1O (stereo not given)
inactive: [9] 111 % of control | endpoint: mean survival time, dose: 150.0 mg/kg/injection, schedule: Q01DX001 (ip), vehicle: saline 103 % of control | endpoint: mean survival time, dose: 300.0 mg/kg/injection, schedule: Q01DX001 (ip), vehicle: saline 108 % of control

S=c1[nH]n(-c2ccccc2)c(=S)s1
inactive: endpoint: mean survival time, dose: 75.0 mg/kg/injection, schedule: Q04DX003 (ip), vehicle: saline 100 % of control

C1=C(c2ccccc2)CC(/C=C/c2ccccc2)(c2ccccc2)C1c1ccccc1 (stereo not given)
inactive: [10] 92 % of control | [8] 98 % of control | [1] 90 % of control

Nc1cc2[nH]c(=O)c3ccccc3c2cc1Br
inactive: endpoint: mean survival time, dose: 100.0 mg/kg/injection, schedule: Q01DX001 (ip), vehicle: carboxymethylcellulose (CMC) 103 % of control | endpoint: mean survival time, dose: 200.0 mg/kg/injection, schedule: Q01DX001 (ip), vehicle: carboxymethylcellulose (CMC) 97 % of control | endpoint: mean survival time, dose: 400.0 mg/kg/injection, schedule: Q01DX001 (ip), vehicle: carboxymethylcellulose (CMC) 100 % of control

C=Cc1ccc(NC(=O)CCn2cnc3c(N)ncnc32)cc1
inactive: endpoint: mean survival time, dose: 12.5 mg/kg/injection, schedule: Q01DX005 (ip), vehicle: distilled water + Tween-80 100 % of control | endpoint: mean survival time, dose: 25.0 mg/kg/injection, schedule: Q01DX005 (ip), vehicle: distilled water + Tween-80 102 % of control | endpoint: mean survival time, dose: 50.0 mg/kg/injection, schedule: Q01DX005 (ip), vehicle: distilled water + Tween-80 98 % of control | endpoint: mean survival time, dose: 100.0 mg/kg/injection, schedule: Q01DX005 (ip), vehicle: distilled water + Tween-80 98 % of control | endpoint: mean survival time, dose: 200.0 mg/kg/injection, schedule: Q01DX005 (ip), vehicle: distilled water + Tween-80 98 % of control

O=C(N/N=C/c1ccc(Cl)cc1)C(O)(c1ccccc1)c1ccccc1
inactive: [10] 102 % of control | [8] 91 % of control | [1] 96 % of control

N=C(N)c1ccc(OCCOc2ccc(N)cc2)cc1
inactive: [11] 103 % of control | [12] 103 % of control

COC(=O)C(C)NC(=O)OCc1ccccc1 (stereo not given)
inactive: [2] 96 % of control | [4] 98 % of control | [6] 101 % of control

CC(C)(C)SC1C(O)C(CO)OC1n1ccc(Nc2ccccc2)nc1=O (stereo not given)
inactive: endpoint: median survival time, dose: 12.5 mg/kg/injection, schedule: Q01DX005 (ip), vehicle: saline with Tween-80 99 % of control | endpoint: median survival time, dose: 25.0 mg/kg/injection, schedule: Q01DX005 (ip), vehicle: saline with Tween-80 99 % of control | endpoint: median survival time, dose: 50.0 mg/kg/injection, schedule: Q01DX005 (ip), vehicle: saline with Tween-80 102 % of control | endpoint: median survival time, dose: 100.0 mg/kg/injection, schedule: Q01DX005 (ip), vehicle: saline with Tween-80 104 % of control | endpoint: median survival time, dose: 200.0 mg/kg/injection, schedule: Q01DX005 (ip), vehicle: saline with Tween-80 90 % of control

CCCCCN1C(=O)CCC1=O
inactive: [2] 112 % of control | [4] 109 % of control | [6] 104 % of control

Cc1c2ccccc2cc2cc[n+]3ccccc3c12
inactive: endpoint: mean survival time, dose: 10.0 mg/kg/injection, schedule: Q01DX009 (ip), vehicle: Klucel (hydroxypropylcellulose) (HPC) 92 % of control | endpoint: mean survival time, dose: 20.0 mg/kg/injection, schedule: Q01DX009 (ip), vehicle: Klucel (hydroxypropylcellulose) (HPC) 103 % of control | endpoint: mean survival time, dose: 40.0 mg/kg/injection, schedule: Q01DX009 (ip), vehicle: Klucel (hydroxypropylcellulose) (HPC) 92 % of control

CC1(C)C2CCC1(CS(=O)(=O)O)C(=O)C2.[Ag] (stereo not given)
inactive: endpoint: mean survival time, dose: 100.0 mg/kg/injection, schedule: Q04DX003 (ip), vehicle: acetone 96 % of control

CNc1nc(SC)nc2c1cnn2C1OC(CO)C(O)C1O (stereo not given)
inactive: endpoint: median survival time, dose: 10.75 mg/kg/injection, schedule: Q01DX005 (ip), vehicle: saline with Tween-80 103 % of control | endpoint: median survival time, dose: 21.5 mg/kg/injection, schedule: Q01DX005 (ip), vehicle: saline with Tween-80 97 % of control | endpoint: median survival time, dose: 43.0 mg/kg/injection, schedule: Q01DX005 (ip), vehicle: saline with Tween-80 107 % of control | endpoint: median survival time, dose: 86.0 mg/kg/injection, schedule: Q01DX005 (ip), vehicle: saline with Tween-80 100 % of control

CC(=O)CC(=O)N(C)Cc1ccccc1
inactive: [11] 101 % of control | [12] 104 % of control | endpoint: mean survival time, dose: 400.0 mg/kg/injection, schedule: Q01DX001 (ip), vehicle: saline with Tween-80 107 % of control

Source: PubChem BioAssay AID256 (DTP/NCI, 2004)
